From publication PMC10682951, “Structure-function and rational design of a spider toxin Ssp1a at human voltage-gated sodium channel subtypes” (Frontiers in Pharmacology, 2023)
Bridge positions count the residues as written; N and C are the ends. Peptide text beside a SMILES is read from it.

Experiments:
Type in all cases: cell-based
hNaV1.7 = target: T1, hNaV1.7 (Homo sapiens, UniProt Q15858); assay: Automated whole-cell patch-clamp (QPatch 16X), hNaV1.7; details: for IC50: HEK293 cells expressing hNaV1.7 + β1 subunit, QPatch 16X, holding −80 mV, step to 0 mV, peptide incubated 2 min, 0.1% BSA, mean, SEM and n (3-9)
T1 construct: host or cells: HEK293
Outline: (§1)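 HEK293 cells stably expressing the channel (human subtypes with β1 subunit), held at −80 mV; 2 min peptide pre-incubation, then 20 ms steps to 0 mV after a 200 ms −120 mV conditioning pulse. Extracellular pH 7.3 with 20 mM TEA-Cl, CsF-based pipette solution, 0.1% BSA; IC50 from four-parameter Hill fit.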

hNaV1.2 = target: T2, hNaV1.2 (Homo sapiens, UniProt Q99250); assay: Automated whole-cell patch-clamp (QPatch 16X), hNaV1.2; details: for IC50: HEK293 cells expressing hNaV1.2 + β1 subunit, QPatch 16X, holding −80 mV, step to 0 mV, peptide incubated 2 min, 0.1% BSA, mean, SEM and n (2-7)
T2 construct: host or cells: HEK293
T2 sequence (Q07699 19-218): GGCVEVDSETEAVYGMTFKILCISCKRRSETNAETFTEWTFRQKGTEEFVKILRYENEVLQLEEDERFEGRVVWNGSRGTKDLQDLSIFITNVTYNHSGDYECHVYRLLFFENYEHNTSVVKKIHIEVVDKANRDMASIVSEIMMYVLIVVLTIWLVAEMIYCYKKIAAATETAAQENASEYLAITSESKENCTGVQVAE
T2 sequence (Q99250 whole entry): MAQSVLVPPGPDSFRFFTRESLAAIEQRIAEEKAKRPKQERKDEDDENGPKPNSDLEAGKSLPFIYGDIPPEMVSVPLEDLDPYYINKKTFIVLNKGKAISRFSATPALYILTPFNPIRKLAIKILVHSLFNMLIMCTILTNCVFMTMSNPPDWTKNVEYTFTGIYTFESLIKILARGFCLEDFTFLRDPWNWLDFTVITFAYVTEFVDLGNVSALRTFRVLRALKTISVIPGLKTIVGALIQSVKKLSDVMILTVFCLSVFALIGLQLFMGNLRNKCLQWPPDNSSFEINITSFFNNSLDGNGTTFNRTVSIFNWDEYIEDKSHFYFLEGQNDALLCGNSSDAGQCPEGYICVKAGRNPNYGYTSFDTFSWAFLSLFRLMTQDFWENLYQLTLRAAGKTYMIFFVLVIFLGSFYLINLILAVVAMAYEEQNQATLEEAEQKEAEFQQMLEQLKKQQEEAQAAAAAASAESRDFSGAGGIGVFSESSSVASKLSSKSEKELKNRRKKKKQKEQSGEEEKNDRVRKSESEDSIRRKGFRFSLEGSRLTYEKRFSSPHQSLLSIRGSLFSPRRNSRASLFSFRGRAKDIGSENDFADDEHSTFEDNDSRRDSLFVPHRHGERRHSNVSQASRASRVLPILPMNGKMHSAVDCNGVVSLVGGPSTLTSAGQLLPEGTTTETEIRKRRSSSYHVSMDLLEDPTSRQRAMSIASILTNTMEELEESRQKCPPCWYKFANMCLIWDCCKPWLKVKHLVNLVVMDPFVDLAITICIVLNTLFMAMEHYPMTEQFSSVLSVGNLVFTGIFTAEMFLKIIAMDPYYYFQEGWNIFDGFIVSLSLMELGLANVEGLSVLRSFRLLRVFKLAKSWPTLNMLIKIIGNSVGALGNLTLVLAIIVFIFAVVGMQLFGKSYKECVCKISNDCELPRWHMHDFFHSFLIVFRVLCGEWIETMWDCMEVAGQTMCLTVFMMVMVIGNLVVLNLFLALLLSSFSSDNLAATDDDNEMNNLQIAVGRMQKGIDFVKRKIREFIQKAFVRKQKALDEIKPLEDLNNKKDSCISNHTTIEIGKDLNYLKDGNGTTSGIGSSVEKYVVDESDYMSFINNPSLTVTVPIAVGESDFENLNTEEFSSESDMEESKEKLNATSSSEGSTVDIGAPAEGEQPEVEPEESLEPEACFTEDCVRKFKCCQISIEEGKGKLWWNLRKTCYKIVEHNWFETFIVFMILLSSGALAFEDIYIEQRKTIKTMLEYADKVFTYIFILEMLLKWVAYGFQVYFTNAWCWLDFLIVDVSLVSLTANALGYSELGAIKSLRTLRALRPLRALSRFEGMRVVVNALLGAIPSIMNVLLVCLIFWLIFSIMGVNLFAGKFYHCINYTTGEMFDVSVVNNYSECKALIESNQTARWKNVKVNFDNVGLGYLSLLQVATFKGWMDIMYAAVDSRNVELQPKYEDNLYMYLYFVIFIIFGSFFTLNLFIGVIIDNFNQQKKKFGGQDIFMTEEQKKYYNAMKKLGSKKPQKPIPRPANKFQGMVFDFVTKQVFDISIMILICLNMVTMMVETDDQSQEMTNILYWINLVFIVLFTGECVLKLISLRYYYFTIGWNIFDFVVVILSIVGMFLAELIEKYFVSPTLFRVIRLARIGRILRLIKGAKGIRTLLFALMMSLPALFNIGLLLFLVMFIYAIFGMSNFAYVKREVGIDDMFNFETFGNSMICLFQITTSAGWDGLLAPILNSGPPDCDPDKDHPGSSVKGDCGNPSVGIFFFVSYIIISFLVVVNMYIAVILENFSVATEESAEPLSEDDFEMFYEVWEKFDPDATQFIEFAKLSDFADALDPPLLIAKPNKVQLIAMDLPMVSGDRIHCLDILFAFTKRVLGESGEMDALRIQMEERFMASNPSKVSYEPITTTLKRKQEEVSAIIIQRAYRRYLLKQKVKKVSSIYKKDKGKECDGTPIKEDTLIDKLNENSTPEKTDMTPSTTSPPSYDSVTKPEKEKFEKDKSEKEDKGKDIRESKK
Outline: as §1

hNaV1.3 = target: T3, hNaV1.3 (Homo sapiens, UniProt Q9NY46); assay: Automated whole-cell patch-clamp (QPatch 16X), hNaV1.3; details: HEK293 cells expressing hNaV1.3 + β1 subunit; QPatch 16X; holding −80 mV, step to 0 mV; peptide incubated 2 min; 0.1% BSA; mean, SEM and n (3-12)
T3 construct: host or cells: HEK293
T3 sequence (Q9NY46 whole entry): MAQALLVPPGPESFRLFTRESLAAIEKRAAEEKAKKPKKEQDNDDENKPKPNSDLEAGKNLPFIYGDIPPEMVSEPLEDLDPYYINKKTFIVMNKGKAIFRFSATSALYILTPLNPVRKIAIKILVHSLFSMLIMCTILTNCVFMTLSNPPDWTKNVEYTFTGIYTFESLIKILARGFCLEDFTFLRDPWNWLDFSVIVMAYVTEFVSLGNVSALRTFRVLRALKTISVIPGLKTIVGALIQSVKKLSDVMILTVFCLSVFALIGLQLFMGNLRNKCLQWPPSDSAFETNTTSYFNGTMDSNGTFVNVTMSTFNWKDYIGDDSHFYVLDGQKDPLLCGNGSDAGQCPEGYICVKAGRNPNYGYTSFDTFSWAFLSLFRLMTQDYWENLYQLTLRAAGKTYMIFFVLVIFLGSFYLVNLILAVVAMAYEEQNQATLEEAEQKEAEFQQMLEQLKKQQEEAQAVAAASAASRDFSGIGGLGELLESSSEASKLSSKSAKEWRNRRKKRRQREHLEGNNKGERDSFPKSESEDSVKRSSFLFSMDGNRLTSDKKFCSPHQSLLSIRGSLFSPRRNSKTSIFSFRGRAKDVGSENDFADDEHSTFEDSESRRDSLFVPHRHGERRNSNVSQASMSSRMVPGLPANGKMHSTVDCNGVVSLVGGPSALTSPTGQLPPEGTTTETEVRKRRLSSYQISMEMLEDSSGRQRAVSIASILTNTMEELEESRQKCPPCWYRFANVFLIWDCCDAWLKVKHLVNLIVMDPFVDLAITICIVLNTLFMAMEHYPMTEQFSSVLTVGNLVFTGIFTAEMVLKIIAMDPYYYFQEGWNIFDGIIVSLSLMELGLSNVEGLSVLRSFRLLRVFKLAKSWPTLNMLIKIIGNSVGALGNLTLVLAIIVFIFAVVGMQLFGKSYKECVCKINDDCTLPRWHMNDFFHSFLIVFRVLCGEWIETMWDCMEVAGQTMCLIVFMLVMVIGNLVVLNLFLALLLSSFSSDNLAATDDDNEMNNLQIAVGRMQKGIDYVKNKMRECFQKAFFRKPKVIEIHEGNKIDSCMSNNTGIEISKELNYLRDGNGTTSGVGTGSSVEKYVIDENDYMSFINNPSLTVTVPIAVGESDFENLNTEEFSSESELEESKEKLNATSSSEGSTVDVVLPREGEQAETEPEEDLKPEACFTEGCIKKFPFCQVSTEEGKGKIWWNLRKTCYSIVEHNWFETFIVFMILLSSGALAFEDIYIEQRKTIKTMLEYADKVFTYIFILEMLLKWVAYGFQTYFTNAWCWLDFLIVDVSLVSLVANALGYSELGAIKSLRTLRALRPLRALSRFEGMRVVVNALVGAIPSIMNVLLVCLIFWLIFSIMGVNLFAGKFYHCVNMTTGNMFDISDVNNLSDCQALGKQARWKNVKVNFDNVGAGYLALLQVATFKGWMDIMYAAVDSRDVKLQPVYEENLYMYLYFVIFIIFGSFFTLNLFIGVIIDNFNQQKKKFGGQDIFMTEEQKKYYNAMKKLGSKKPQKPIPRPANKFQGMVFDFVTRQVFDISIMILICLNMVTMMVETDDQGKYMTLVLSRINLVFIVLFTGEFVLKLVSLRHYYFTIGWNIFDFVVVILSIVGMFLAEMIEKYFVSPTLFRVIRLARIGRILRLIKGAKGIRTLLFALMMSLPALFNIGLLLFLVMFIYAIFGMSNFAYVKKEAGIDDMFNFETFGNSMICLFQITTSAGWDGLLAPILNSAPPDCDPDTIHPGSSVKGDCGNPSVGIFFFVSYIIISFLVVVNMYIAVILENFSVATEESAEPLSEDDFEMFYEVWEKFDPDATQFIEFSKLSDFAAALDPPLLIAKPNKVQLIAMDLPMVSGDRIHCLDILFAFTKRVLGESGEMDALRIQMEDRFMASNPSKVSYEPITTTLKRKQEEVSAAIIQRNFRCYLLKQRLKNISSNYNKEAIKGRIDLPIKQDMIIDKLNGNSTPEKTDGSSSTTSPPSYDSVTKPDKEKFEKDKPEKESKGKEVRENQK
T3 sequence (Q07699 19-218, further chain): as the sequence (Q07699 19-218) above
Outline: as §1

SMILES | IC50 (hNaV1.7) [µM] | IC50 (hNaV1.2) [µM] | IC50 (hNaV1.3) [µM] | hNaV1.2-selectivity against hNaV1.3 (hNaV1.2; ratio of potencies hNaV1.3 / hNaV1.2) [fold] | Loss (reduction) in potency vs rSsp1a at hNaV1.7 (hNaV1.7; relative to wild type rSsp1a) [fold] | Loss (reduction) in potency vs rSsp1a at hNaV1.2 (hNaV1.2; relative to wild type rSsp1a) [fold]
CC(C)C[C@H](NC(=O)[C@H](CC(=O)O)NC(=O)[C@H](Cc1ccc(O)cc1)NC(=O)[C@H](CCCNC(=N)N)NC(=O)[C@@H]1CSSC[C@@H]2NC(=O)[C@H](CCCCN)NC(=O)[C@H](CC(N)=O)NC(=O)[C@H](CC(N)=O)NC(=O)[C@H](CC(N)=O)NC(=O)[C@@H]3CCCN3C(=O)[C@H](CC(=O)O)NC(=O)[C@@H]3CSSC[C@H](NC(=O)[C@H](C(C)C)NC(=O)[C@H](Cc4ccc(O)cc4)NC(=O)CNC(=O)[C@H](CCC(=O)O)NC(=O)[C@H](CSSC[C@H](NC(=O)[C@H](CC(=O)O)NC(=O)CN)C(=O)N[C@@H](CC(C)C)C(=O)N[C@@H](CCC(N)=O)C(=O)N[C@@H](Cc4c[nH]c5ccccc45)C(=O)N[C@@H](Cc4ccccc4)C(=O)N[C@@H](CO)C(=O)NCC(=O)N3)NC2=O)C(=O)N[C@@H](Cc2c[nH]cn2)C(=O)N[C@@H](Cc2c[nH]c3ccccc23)C(=O)N[C@@H](CCCCN)C(=O)N[C@@H](Cc2ccc(O)cc2)C(=O)N2CCC[C@H]2C(=O)N[C@@H](Cc2c[nH]c3ccccc23)C(=O)N1)C(=O)O [G4Q] | 0.606 | 0.503 | 0.999 | – | – | –
CC(C)C[C@H](NC(=O)[C@H](CC(=O)O)NC(=O)[C@H](Cc1ccc(O)cc1)NC(=O)[C@H](CCCNC(=N)N)NC(=O)[C@@H]1CSSC[C@@H]2NC(=O)[C@H](CCCCN)NC(=O)[C@H](CC(N)=O)NC(=O)[C@H](CC(N)=O)NC(=O)[C@H](CC(N)=O)NC(=O)[C@@H]3CCCN3C(=O)[C@H](CC(=O)O)NC(=O)[C@@H]3CSSC[C@H](NC(=O)[C@H](C(C)C)NC(=O)[C@H](Cc4ccc(O)cc4)NC(=O)CNC(=O)[C@H](CCC(=O)O)NC(=O)[C@H](CSSC[C@H](NC(=O)[C@H](CC(=O)O)NC(=O)CN)C(=O)N[C@@H](CC(C)C)C(=O)NCC(=O)N[C@@H](Cc4ccccc4)C(=O)N[C@@H](Cc4ccccc4)C(=O)N[C@@H](CO)C(=O)NCC(=O)N3)NC2=O)C(=O)N[C@@H](Cc2c[nH]cn2)C(=O)N[C@@H](Cc2c[nH]c3ccccc23)C(=O)N[C@@H](CCCCN)C(=O)N[C@@H](Cc2ccc(O)cc2)C(=O)N2CCC[C@H]2C(=O)N[C@@H](Cc2c[nH]c3ccccc23)C(=O)N1)C(=O)O [W5F] | 1.26 | 0.579 | > 3 | – | – | –
CC(C)C[C@H](NC(=O)[C@H](CC(=O)O)NC(=O)[C@H](Cc1ccc(O)cc1)NC(=O)[C@H](CCCNC(=N)N)NC(=O)[C@@H]1CSSC[C@@H]2NC(=O)[C@H](CCCCN)NC(=O)[C@H](CC(N)=O)NC(=O)[C@H](CC(N)=O)NC(=O)[C@H](CC(N)=O)NC(=O)[C@@H]3CCCN3C(=O)[C@H](CC(=O)O)NC(=O)[C@@H]3CSSC[C@H](NC(=O)[C@H](C(C)C)NC(=O)[C@H](Cc4ccc(O)cc4)NC(=O)CNC(=O)[C@H](CCC(=O)O)NC(=O)[C@H](CSSC[C@H](NC(=O)[C@H](CC(=O)O)NC(=O)CN)C(=O)N[C@@H](CC(C)C)C(=O)NCC(=O)N[C@@H](Cc4c[nH]c5ccccc45)C(=O)N[C@@H](Cc4ccccc4)C(=O)N[C@@H](CO)C(=O)NCC(=O)N3)NC2=O)C(=O)N[C@@H](Cc2c[nH]cn2)C(=O)N[C@@H](Cc2c[nH]c3ccccc23)C(=O)N[C@@H](CCCCN)C(=O)N[C@@H](Cc2ccc(O)cc2)C(=O)N[C@@H](CCCCN)C(=O)N[C@@H](Cc2c[nH]c3ccccc23)C(=O)N1)C(=O)O [P27K] | 0.108 | 0.124 | 1.53 | > 10 | – | –
CC(C)C[C@H](NC(=O)[C@H](CC(=O)O)NC(=O)[C@H](Cc1c[nH]c2ccccc12)NC(=O)[C@H](CCCNC(=N)N)NC(=O)[C@@H]1CSSC[C@@H]2NC(=O)[C@H](CCCCN)NC(=O)[C@H](CC(N)=O)NC(=O)[C@H](CC(N)=O)NC(=O)[C@H](CC(N)=O)NC(=O)[C@@H]3CCCN3C(=O)[C@H](CC(=O)O)NC(=O)[C@@H]3CSSC[C@H](NC(=O)[C@H](C(C)C)NC(=O)[C@H](Cc4ccc(O)cc4)NC(=O)CNC(=O)[C@H](CCC(=O)O)NC(=O)[C@H](CSSC[C@H](NC(=O)[C@H](CC(=O)O)NC(=O)CN)C(=O)N[C@@H](CC(C)C)C(=O)NCC(=O)N[C@@H](Cc4c[nH]c5ccccc45)C(=O)N[C@@H](Cc4ccccc4)C(=O)N[C@@H](CO)C(=O)NCC(=O)N3)NC2=O)C(=O)N[C@@H](Cc2c[nH]cn2)C(=O)N[C@@H](Cc2c[nH]c3ccccc23)C(=O)N[C@@H](CCCCN)C(=O)N[C@@H](Cc2ccc(O)cc2)C(=O)N2CCC[C@H]2C(=O)N[C@@H](Cc2c[nH]c3ccccc23)C(=O)N1)C(=O)O [Y31W] | 0.08 | 0.089 | 0.16 | – | – | –
CC(C)C[C@H](NC(=O)[C@H](CC(=O)O)NC(=O)[C@H](Cc1ccc(O)cc1)NC(=O)[C@H](CCCNC(=N)N)NC(=O)[C@@H]1CSSC[C@@H]2NC(=O)[C@H](CCCCN)NC(=O)[C@H](CC(N)=O)NC(=O)[C@H](CC(N)=O)NC(=O)[C@H](CC(N)=O)NC(=O)[C@@H]3CCCN3C(=O)[C@H](CC(=O)O)NC(=O)[C@@H]3CSSC[C@H](NC(=O)[C@H](C(C)C)NC(=O)[C@H](Cc4ccc(O)cc4)NC(=O)CNC(=O)CNC(=O)[C@H](CSSC[C@H](NC(=O)[C@H](CC(=O)O)NC(=O)CN)C(=O)N[C@@H](CC(C)C)C(=O)NCC(=O)N[C@@H](Cc4c[nH]c5ccccc45)C(=O)N[C@@H](Cc4ccccc4)C(=O)N[C@@H](CO)C(=O)NCC(=O)N3)NC2=O)C(=O)N[C@@H](Cc2c[nH]cn2)C(=O)N[C@@H](Cc2c[nH]c3ccccc23)C(=O)N[C@@H](CCCCN)C(=O)N[C@@H](Cc2ccc(O)cc2)C(=O)N2CCC[C@H]2C(=O)N[C@@H](Cc2c[nH]c3ccccc23)C(=O)N1)C(=O)O [E18G] | 0.276 | 0.119 | 0.406 | – | – | –
CC(C)C[C@H](NC(=O)[C@H](CC(=O)O)NC(=O)[C@H](Cc1ccc(O)cc1)NC(=O)[C@H](CCCNC(=N)N)NC(=O)[C@@H]1CSSC[C@@H]2NC(=O)[C@H](CCCCN)NC(=O)[C@H](CC(N)=O)NC(=O)[C@H](CC(N)=O)NC(=O)[C@H](CC(N)=O)NC(=O)[C@@H]3CCCN3C(=O)[C@H](CC(=O)O)NC(=O)[C@@H]3CSSC[C@H](NC(=O)[C@H](C(C)C)NC(=O)[C@H](Cc4ccc(O)cc4)NC(=O)CNC(=O)[C@H](CCC(=O)O)NC(=O)[C@H](CSSC[C@H](NC(=O)[C@H](CC(=O)O)NC(=O)CN)C(=O)N[C@@H](CC(C)C)C(=O)NCC(=O)N[C@@H](Cc4c[nH]c5ccccc45)C(=O)N[C@@H](Cc4ccccc4)C(=O)N[C@@H](CO)C(=O)NCC(=O)N3)NC2=O)C(=O)N[C@@H](Cc2c[nH]cn2)C(=O)N[C@@H](Cc2c[nH]c3ccccc23)C(=O)N[C@@H](CCCCN)C(=O)N[C@@H](C)C(=O)N2CCC[C@H]2C(=O)N[C@@H](Cc2c[nH]c3ccccc23)C(=O)N1)C(=O)O [Y26A] (H-GDCLGWFSGCDPNNNKCCEGYVCHWKAPWCRYDL-OH; disulfide 3-18, 10-23, 17-30 (inferred); N-terminus and C-terminus assumed) | > 1 | > 1 | > 1 | – | ≥ 10 | ≥ 10
